{"source": "patent US5629431A", "about": "“Inhibitors of retroviral proteases” (Hoechst Aktiengesellschaft, priority 1989, dated 1997)", "origin": "cited, not measured here", "key": {"HIV protease": {"system": "HIV protease", "conditions": "literature value (Katoh et al., Nature 329, 1987); read-out: IC50 against HIV protease"}, "[1]": {"system": "formation of the nuclear protein p24 and activity of reverse transcriptase", "conditions": "high doses; in the biosynthesis (v. d. Helm et al., FEBS Lett. 247, 1989)"}}, "note": "Square brackets hold non-standard residues; d marks the D form. Peptide text beside a SMILES is read from it. * marks the point of attachment. Sta = CC(C)C[C@H](N)[C@@H](O)CC(=O)O; Isovaleryl = CC(C)CC(=O)*"}
{"smiles": "CC(C)CC(=O)N[C@H](C(=O)N[C@H](C(=O)N[C@@H](CC(C)C)[C@@H](O)CC(=O)N[C@@H](C)C(=O)N[C@@H](CC(C)C)[C@@H](O)CC(=O)O)C(C)C)C(C)C", "note": "[pepstatin A] (Isovaleryl-VV[Sta]A[Sta]-OH)", "values": [{"measurement": "IC50", "setting": "HIV protease", "result": "[…]"}, {"measurement": "activity of reverse transcriptase", "setting": "[1]", "result": "reduction"}, {"measurement": "formation of the nuclear protein p24", "setting": "[1]", "result": "reduction"}]}
